# Experimental data from PubChem BioAssay (NCI).
#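 48-hour exposure; five concentrations; linearly interpolated endpoints. TGI: concentration producing complete growth inhibition.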
# Test system: P388/ADR leukemia
# Assay: NCI tumour cell line growth inhibition, 48 h
structure (smiles),measurement,value
C[C@H](N)C(=O)N[C@@H]1[C@H]2C(=C(O)C[C@@H](O)[C@@H]2O)C(=O)O[C@]1(C)C(Cl)Cl,TGI,2100 nM
